Measured values reported in paper PMC8010047, “New insights into the molecular mechanism behind mannitol and erythritol fructosylation by β-fructofuranosidase from Schwanniomyces occidentalis” (Scientific Reports, 2021).

Experiments:
[1] = molecular target: T1, β-fructofuranosidase from Schwanniomyces occidentalis (Ffase) (Schwanniomyces occidentalis, UniProt E5D0X5, D50A); assay: X-ray crystallography (soaking); type: binding
T1 construct: expressed in Saccharomyces cerevisiae (SUC2-disrupted), secreted, DEAE-purified; homodimer of 160 kDa, 535 residues per subunit; GH32; deglycosylated for crystals
T1 sequence (E5D0X5 entry or part of it D50A): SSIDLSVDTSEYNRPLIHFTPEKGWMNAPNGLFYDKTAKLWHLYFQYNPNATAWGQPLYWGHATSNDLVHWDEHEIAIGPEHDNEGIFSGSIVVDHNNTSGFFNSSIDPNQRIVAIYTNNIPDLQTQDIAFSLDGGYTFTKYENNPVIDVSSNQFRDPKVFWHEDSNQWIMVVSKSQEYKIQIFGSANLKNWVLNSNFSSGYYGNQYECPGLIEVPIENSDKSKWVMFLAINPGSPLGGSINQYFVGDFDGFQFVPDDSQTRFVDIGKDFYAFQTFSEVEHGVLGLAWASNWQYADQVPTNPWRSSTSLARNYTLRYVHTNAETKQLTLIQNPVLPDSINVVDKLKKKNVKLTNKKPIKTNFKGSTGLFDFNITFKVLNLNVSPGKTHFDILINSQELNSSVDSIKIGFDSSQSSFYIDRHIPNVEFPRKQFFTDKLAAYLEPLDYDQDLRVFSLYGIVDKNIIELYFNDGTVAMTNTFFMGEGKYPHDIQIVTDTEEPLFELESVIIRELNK

[2] = molecular target: T1, β-fructofuranosidase from Schwanniomyces occidentalis (Ffase); assay: X-ray crystallography; type: binding; details: crystals incubated with fructosyl-mannitol, sucrose from traces in the product; deglycosylated inactive mutant; active site subsites -1/+1; paper deposits 6S2B and 6S1T without assigning them

For `OCC(O)C(O)CO[C@]1(CO)O[C@H](CO)[C@@H](O)[C@@H]1O` (stereo partly drawn) [fructosyl-erythritol, 1/4-O-β-D-fructofuranosyl-D-erythritol], the “X-ray crystallography (soaking)” value ([1]; 100 mM ligand soak, pH 6.0, deglycosylated inactive mutant, active site subsites -1/+1, 1.88 Å, paper deposits 6S2B and 6S1T without assigning them) was “The formation of Ffase-D50A/fructosyl-erythritol complex was clearly detected”.
`OC[C@H]1O[C@@](CO)(O[C@H]2O[C@H](CO)[C@@H](O)[C@H](O)[C@H]2O)[C@@H](O)[C@@H]1O` [sucrose] was tested, and the X-ray crystallography [2] was “only sucrose was observed in crystals grown in the presence of fructosyl-mannitol”.
With `OC[C@@]1(O)OC[C@@H](O)[C@@H](O)[C@@H]1O` [β-fructose] the “X-ray crystallography (soaking)” value ([1]; soaked with β-fructose plus mannitol or erythritol, active site, structure not deposited) was “only fructose was bound at the active site in both experiments”.
